Experimental data from patent US4692525A, “Process for the separation of optical isomers of racemic 1-pyridyl-alkyl-4-aryl piperazines, and optical isomers obtained thereby” (Malesci S.p.A. Istituto Farmacobiologico, priority 1983, dated 1987).

Key:
Male Swiss mice = test: Acute toxicity, i.p., mice (DL50); type: in vivo
Description: (§1) Male Swiss mice of 20-25 g body weight were treated by i.p. injection with rated concentrations of the three compounds. The values of DL50 and the relative confidence limits were calculated according to the method of Wilcoxon (J. Pharmac. Exp. Ther. 96, 99; 1949).

[1] = tested on: post-synaptic alpha-receptors; test: Alpha-blocking activity in vitro, isolated rabbit aorta, antagonism of nor-adrenaline response; type: biochemical; conditions: for pA2 (M ±DS): isolated rabbit aorta, versus nor-adrenaline
Description: The aorta isolated from a rabbit and prepared according to the procedure of Furchgott and Bhadrakom (J. Pharm. Exp. Ther. 108, 129; 1953) was tested with cumulative doses of nor-adrenaline till maximum responde obtainable in the absence and in the presence of the three compounds. The pA2 values were calculated according to Ariens and Van Rossum (Arch. Int. Pharmacodyn. 110, 275; 1957)
It is evident from the Table given above that the (+) derivative is 100 times as active as the (-) derivative and almost 3 times as active as the (r) compound in blocking the post-synaptic alpha-receptors response to nor-adrenaline.

[2] = tested on: Spontaneously hypertensive rats; test: Hypotensive activity in vivo, spontaneously hypertensive rats, oral; design: species or system rat; conditions: for anti-hypertensive activity (in words): in vivo, comparison among racemate and isomers; for ED50: Rattus norvegicus, 30' after oral administration, obtained from graphs
Description: Spontaneously hypertensive rats were employed after they were fasted for 16 hours and tested for their systemic pressure by bloodless measurements before and after oral administration of the three compounds at the doses of 5-10-15 mg/kg.
The administration of all the compounds gives rise to a lowering of the dose-dependent hypertension, because the regression coefficients are always significative. The ED50 values in mg/kg, obtained from the graphs of the activities observed, are as follows;

[3] = Acute toxicity, i.p., mice (DL50); type: in vivo; conditions: mouse, in vivo, ip, i.p. injection, male Swiss mice; Wilcoxon method
Description: as §1

Row | Compound | DL50 (Male Swiss mice; i.p. injection, male Swiss mice, Wilcoxon method) | pA2 (M ±DS) [1] | anti-hypertensive activity (in words) [2] | anti-hypertensive activity (in words) ([2]; listed as laevorotatory isomer) | LD50 [3] | ED50 ([2]; 0.5 h) | ED50 ([2]; 1.5 h, 1 h) | toxicity compared with racemic compound (in words) (Male Swiss mice; LD50 values or symptomatology) | activity relative to the (-) derivative in blocking the post-synaptic alpha-receptors response to nor-adrenaline ([1]; versus (-) derivative) | activity relative to the (r) compound in blocking the post-synaptic alpha-receptors response to nor-adrenaline ([1]; versus (r) compound) | anti-hypertensive activity (in words) ([2]; listed as dextrorotatory isomer)
1 | CCOC(CN1CCN(c2ccccc2OC)CC1)c1cccnc1 (single isomer, unassigned; (-)) [(-), (-) 1-(2-ethoxy-2-(3'-pyridyl)ethyl)-4-(o-methoxyphenyl)piperazine] | 68 mg/kg | 6.95 ± 0.05 | quite low activity | almost inactive | – | – | – | – | – | – | –
2 | CCOC(CN1CCN(c2ccccc2OC)CC1)c1cccnc1 (racemic) [(r), (±) 1-(2-ethoxy-2-ethoxy-2-(3'-pyridyl)ethyl)-4-(o-methoxyphenyl)piperazine] | – | 8.62 ± 0.11 | – | – | 75 mg/kg | 7.8 mg/kg | 18.8 mg/kg | – | – | – | –
3 | CCOC(CN1CCN(c2ccccc2OC)CC1)c1cccnc1 (single isomer, unassigned; (+)) [(+), (+) 1-(2-ethoxy-2-(3'-pyridyl)ethyl)-4-(o-methoxyphenyl)piperazine] | – | 9.04 ± 0.03 | most active form | – | 65 mg/kg | 5.5 mg/kg | 10.9 mg/kg | same toxicity of said racemic compound | 100 times | ~3 times | higher anti-hypertensive activity than the racemic compound
